Measurements from publication PMC12951562, “SH2scan: Mapping SH2 Domain-Ligand Binding Selectivity for Inhibitors and Degraders” (Journal of Medicinal Chemistry, 2026).
Like-named read-outs stand apart in the source and are kept apart here. Non-standard residues stand in square brackets, D forms with d. Residues, ends and D or L forms follow the SMILES beside them. *: point of attachment. pY = N[C@@H](Cc1ccc(OP(=O)(O)O)cc1)C(=O)O; Caffeoyl = O=C(/C=C/c1ccc(O)c(O)c1)*

Experiments:
[1] = target: T1, STAT3(N647I)-nonphosphorylated (Homo sapiens, UniProt P40763, N647I); test: biochemical; format: binding; details: for percent of DMSO vehicle control at 10 µM / remaining activity at 10 µM: read-out: percent of DMSO vehicle control
T1 construct: made in house; host or cells: HEK293 (transient transfection), unpurified extract, dephosphorylated by endogenous phosphatases

[2] = target: T2, STAT3(E616del)-nonphosphorylated (Homo sapiens, UniProt P40763, DEL616-616); test: biochemical; format: binding; details: for percent of DMSO vehicle control at 10 µM / remaining activity at 10 µM: read-out: percent of DMSO vehicle control
T2 construct: made in house; host or cells: HEK293 (transient transfection), unpurified extract, dephosphorylated by endogenous phosphatases

[3] = target: T3, SH2D1A (Homo sapiens, UniProt O60880); test: biochemical; format: binding; details: for remaining activity at 10 µM: read-out: percent of DMSO vehicle control
T3 construct: made in house; host or cells: HEK293 (transient transfection), unpurified extract
T3 sequence (O60880 1-128): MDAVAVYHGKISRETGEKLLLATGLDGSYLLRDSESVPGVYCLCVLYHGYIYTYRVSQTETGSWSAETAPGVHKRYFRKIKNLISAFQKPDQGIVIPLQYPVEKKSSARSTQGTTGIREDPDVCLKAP

[4] = target: T4, STAT3(Y640F)-nonphosphorylated (Homo sapiens, UniProt P40763, Y640F); test: biochemical; format: binding; details: for percent of DMSO vehicle control at 10 µM / remaining activity at 10 µM: read-out: percent of DMSO vehicle control
T4 construct: made in house; host or cells: HEK293 (transient transfection), unpurified extract, dephosphorylated by endogenous phosphatases

[5] = target: T5, SYK(SH2dom1.dom2.) (Homo sapiens, UniProt P43405); format: binding; details: primary screen, 10 μM
T5 construct: the SH2 domains for these targets are expressed in tandem constructs; made in house; host or cells: HEK293 (transient transfection), unpurified extract

[6] = target: T6, SHIP2 (Homo sapiens, UniProt O15357); test: biochemical; format: binding; details: for remaining activity at 10 µM: read-out: percent of DMSO vehicle control
T6 construct: made in house; host or cells: HEK293 (transient transfection), unpurified extract
T6 sequence (O15357 1-1258): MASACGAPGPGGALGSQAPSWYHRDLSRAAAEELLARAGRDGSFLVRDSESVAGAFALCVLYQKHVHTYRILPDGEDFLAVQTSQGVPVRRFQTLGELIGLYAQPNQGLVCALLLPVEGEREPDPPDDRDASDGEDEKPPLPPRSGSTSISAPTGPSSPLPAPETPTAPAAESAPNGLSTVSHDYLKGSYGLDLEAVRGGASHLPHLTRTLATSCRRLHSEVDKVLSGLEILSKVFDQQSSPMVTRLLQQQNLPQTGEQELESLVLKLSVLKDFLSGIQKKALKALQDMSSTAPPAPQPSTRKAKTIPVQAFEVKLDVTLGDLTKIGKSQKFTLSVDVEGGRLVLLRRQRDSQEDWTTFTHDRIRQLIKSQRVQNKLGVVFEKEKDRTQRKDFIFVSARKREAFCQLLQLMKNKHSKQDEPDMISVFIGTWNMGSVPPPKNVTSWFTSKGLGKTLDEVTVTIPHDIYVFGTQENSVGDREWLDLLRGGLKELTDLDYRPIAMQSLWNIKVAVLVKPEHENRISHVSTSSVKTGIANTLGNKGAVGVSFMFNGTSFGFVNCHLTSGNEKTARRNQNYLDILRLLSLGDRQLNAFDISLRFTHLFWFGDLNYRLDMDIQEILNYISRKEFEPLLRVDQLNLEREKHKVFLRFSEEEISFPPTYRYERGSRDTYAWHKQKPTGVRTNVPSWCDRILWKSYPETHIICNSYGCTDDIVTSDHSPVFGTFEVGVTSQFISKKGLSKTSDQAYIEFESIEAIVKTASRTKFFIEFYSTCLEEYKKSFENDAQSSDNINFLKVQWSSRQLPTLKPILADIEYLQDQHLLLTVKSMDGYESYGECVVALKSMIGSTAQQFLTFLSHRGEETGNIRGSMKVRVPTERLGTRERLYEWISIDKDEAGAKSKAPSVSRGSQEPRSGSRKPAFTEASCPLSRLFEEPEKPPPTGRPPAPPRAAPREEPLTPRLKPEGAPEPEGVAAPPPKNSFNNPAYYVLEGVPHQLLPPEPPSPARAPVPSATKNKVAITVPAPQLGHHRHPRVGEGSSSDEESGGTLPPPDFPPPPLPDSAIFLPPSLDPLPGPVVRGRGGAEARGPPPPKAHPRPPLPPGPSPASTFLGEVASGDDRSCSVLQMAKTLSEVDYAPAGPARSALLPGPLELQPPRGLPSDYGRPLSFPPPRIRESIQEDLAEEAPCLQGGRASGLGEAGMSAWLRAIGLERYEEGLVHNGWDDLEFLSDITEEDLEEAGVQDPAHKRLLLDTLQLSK

[7] = target: T7, STAT3(S614R)-nonphosphorylated (Homo sapiens, UniProt P40763, S614R); test: biochemical; format: binding; details: for percent of DMSO vehicle control at 10 µM / remaining activity at 10 µM: read-out: percent of DMSO vehicle control
T7 construct: made in house; host or cells: HEK293 (transient transfection), unpurified extract, dephosphorylated by endogenous phosphatases

[8] = target: T8, PTPN11(SH2dom.C-term.) (Homo sapiens, UniProt Q06124); test: biochemical; format: binding; details: for percent of DMSO vehicle control: primary screen, 10 μM
T8 construct: SH2dom.C-term. denotes SH2 domain closest to C-terminus of protein; made in house; host or cells: HEK293 (transient transfection, unpurified extract)
T8 sequence (Q06124 112-216 limits assumed): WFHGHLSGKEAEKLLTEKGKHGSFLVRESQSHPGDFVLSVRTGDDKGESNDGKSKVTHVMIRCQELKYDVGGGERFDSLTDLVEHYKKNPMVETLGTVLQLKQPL

[9] = target: T9, ZAP70(SH2dom1.dom2.) (Homo sapiens, UniProt P43403); test: biochemical; details: for remaining activity at 10 µM: read-out: percent of DMSO vehicle control
T9 sequence (P43403 1-254 limits assumed): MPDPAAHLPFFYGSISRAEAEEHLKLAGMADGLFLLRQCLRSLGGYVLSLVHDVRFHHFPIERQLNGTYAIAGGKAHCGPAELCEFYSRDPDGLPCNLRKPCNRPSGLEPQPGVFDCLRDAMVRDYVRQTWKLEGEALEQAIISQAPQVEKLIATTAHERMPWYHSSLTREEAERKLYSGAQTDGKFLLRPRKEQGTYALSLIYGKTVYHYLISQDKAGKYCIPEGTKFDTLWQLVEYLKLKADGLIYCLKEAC

SMILES	percent of DMSO vehicle control [5] [%]	percent of DMSO vehicle control [8] [%]	percent of DMSO vehicle control at 10 µM [1] [%]	percent of DMSO vehicle control at 10 µM [2] [%]	remaining activity at 10 µM [3] [%]	percent of DMSO vehicle control at 10 µM [4] [%]	remaining activity at 10 µM [9] [%]	remaining activity at 10 µM [6] [%]	percent of DMSO vehicle control at 10 µM [7] [%]	remaining activity at 10 µM ([1]; primary screen, 10 μM) [%]	remaining activity at 10 µM ([2]; primary screen, 10 μM) [%]	remaining activity at 10 µM ([3]; primary screen, 10 μM) [%]	remaining activity at 10 µM ([4]; primary screen, 10 μM) [%]	remaining activity at 10 µM ([7]; primary screen, 10 μM) [%]	also measured
CC[C@H](C)[C@H](NC(=O)[C@H](CCC(=O)O)NC(=O)[C@H](CCC(=O)O)NC(=O)[C@H](Cc1ccc(OP(=O)(O)O)cc1)NC(C)=O)C(=O)N[C@@H](CCC(=O)O)C(N)=O [Ac-pYEEIE-NH2] (Ac-[pY]EEIE-NH2)	126.1	133.6	–	–	–	–	–	–	–	–	–	–	–	–	percent of DMSO vehicle control ([1]; primary screen, 10 μM): 97.9±8.6%; percent of DMSO vehicle control ([2]; primary screen, 10 μM): 86.7±0.4%; percent of DMSO vehicle control ([3]; primary screen, 10 μM): 93.4%; percent of DMSO vehicle control ([4]; primary screen, 10 μM): 156.0%; percent of DMSO vehicle control ([6]; primary screen, 10 μM): 62.5±0.8%; percent of DMSO vehicle control ([7]; primary screen, 10 μM): 96.3±8.9%
CC(=O)N[C@@H](Cc1ccc(CP(=O)(O)O)cc1)C(=O)NC1(C(=O)N[C@@H](CC(N)=O)C(=O)NCCCc2c(O)ccc3ccccc23)CCCCC1 [CGP78850]	85.1±0.1	127.5±18.4	80.6 ± 2.9	71.8 ± 6.4	63.8 ± 17.1	118 ± 3.3	91.6 ± 5.3	106 ± 9.3	82.4 ± 3.2	–	–	–	–	–	–
CC[C@H](C)[C@H](NC(=O)[C@H](CCC(=O)O)NC(=O)[C@H](CCC(=O)O)NC(=O)[C@H](Cc1ccc(OP(=O)(O)O)cc1)NC(=O)/C=C/c1ccc(O)c(O)c1)C(=O)N[C@@H](CCC(=O)O)C(=O)O [Caffeic acid-pYEEIE] (Caffeoyl-[pY]EEIE-OH)	72.6±6.4	72.6±1.1	85.3 ± 2.1	85.5 ± 0.3	79.8 ± 21.3	131 ± 28.4	32.3 ± 1.6	0.2	81.4 ± 6.7	–	–	–	–	–	Kd [9]: 6.9 ± 0.0038 µM; Kd [6]: 0.23 ± 0.12 µM
O=C(CCl)Nc1cccc(CNC(=O)[C@H](Cc2ccc(OP(=O)(O)O)cc2)NC(=O)Cc2ccc(F)cc2)c1 [MN551]	61.9±4.0	125.6	–	–	–	–	33.5	–	–	81.2	203	77.9 ± 2.2	49 ± 5.7	95.7 ± 8.1	KD ([6]; dose-response): No Hit; remaining activity at 10 µM ([6]; primary screen, 10 μM): 31.7%
NC(=O)CC[C@H](NC(=O)[C@@H]1CC[C@@H]2CCN(C(=O)CCCCCC#Cc3cccc4c3CN(C3CCC(=O)NC3=O)C4=O)C[C@H](NC(=O)c3cc4cc(C(F)(F)P(=O)(O)O)ccc4[nH]3)C(=O)N21)C(=O)NC(c1ccccc1)c1ccccc1 (stereo partly drawn) [SD-36]	104.6	104.4±9.8	0	0	354	0.2 ± 0.6	95.6 ± 1.3	67.3 ± 2.6	1.6	–	–	–	–	–	Kd ([1]; dose-response): 0.063 ± 0.023 µM; Kd ([2]; dose-response): 0.028 ± 0.011 µM; Kd ([4]; dose-response): 0.08 ± 0.027 µM; Kd ([7]; dose-response): 0.0097 ± 0.0041 µM
CC(=O)N1CC[C@H]2CC[C@@H](C(=O)N[C@@H](CCC(N)=O)C(=O)NC(c3ccccc3)c3ccccc3)N2C(=O)[C@@H](NC(=O)c2cc3cc(C(F)(F)P(=O)(O)O)ccc3[nH]2)C1 [SI-109]	121.8	136.9	0.5 ± 0.1	0.1	87.6	5.8 ± 3.7	129	121	0.1	–	–	–	–	–	Kd [1]: 0.025 ± 0.0083 µM; Kd [2]: 0.0087 ± 0.0034 µM; Kd [4]: 0.078 ± 0.044 µM; Kd [7]: 0.005 ± 0.00056 µM
C/C(=C\C(=O)N[C@H](C(=O)N1CCC[C@H]1C(=O)N(c1ccccc1)c1ccc(I)cc1)C(C)(C)C)c1ccc(OP(=O)(O)O)cc1 [STAT6-IN-1]	61.2±11.0	2.1±0.9	–	–	–	–	51.4	–	–	0	0	68.7 ± 3.5	0	0	Kd ([1]; dose-response, read-out: KD): 0.8 ± 0.12 µM; Kd ([2]; dose-response, read-out: KD): 0.14 ± 0.035 µM; Kd ([4]; dose-response, read-out: KD): 0.102 ± 0.044 µM; Kd ([6]; dose-response, read-out: KD): 2.03 ± 0.42 µM; remaining activity at 10 µM ([6]; primary screen, 10 μM): 6.9 ± 3.9%; Kd ([7]; dose-response, read-out: KD): 0.088 ± 0.031 µM; Kd ([8]; dose-response, read-out: KD): 1.06 ± 0.35 µM
O=C(COc1ccc2cc(C(=O)Nc3ccccc3)ccc2c1)NCc1ccc(OP(=O)(O)O)c(OP(=O)(O)O)c1 [Stafib-1]	66.1±28.1	99.1±12.9	–	–	–	–	58 ± 19.5	–	–	78.6 ± 15.4	135	87.8 ± 37.4	75.3 ± 26	87.4 ± 4.6	–
